Results on one compound are retold here after patent US5491229A, “Rapamycin derivative” (SmithKline Beecham PLC, priority 1991, dated 1996).

One test has as its system Saccharomyces cerevisiae. Description: Assay for Antifungal Activity (yeast agar well zone of inhibition). The format is cell-based. The settings on record: 48 hours. Here is the method:
Yeast organisms (Saccharomyces cerevisiae) in logarithmic growth were plated on complete agar medium (YPD). The compound was dissolved in an appropriate aqueous or organic solvent and placed in wells punched in the agar. Plates were incubated for 48 hours and zones of inhibition were measured.
IC12^(nM) refers to the concentration of drug in the antifungal assay which produces a 12 mm zone of inhibition.

Test [1] has as its system Spleen cells from BDF1 female mice. Description: Mitogenesis Assay for Immunosuppressive Activity (concanavalin A-stimulated spleen cells, 3H-thymidine). The class given is cell-based. The settings on record: Concanavalin A (5 μg/ml), 72 hours. The protocol:
Spleen cells from BDF1 female mice were established in RPMI with 10% fetal calf serum at 5×10^6 /ml. One hundred […] aliquots of this suspension (5×10^5 cells) were dispensed into 96-well round-bottomed microtiter plates (Linbro, Flow Laboratories). Concanavalin A (5 μg/ml) was added as the mitogenic stimulus, and the final volume in the microtiter wells was adjusted to 200 μL with RPMI. Cell cultures were incubated for 72 hours at 37 degrees C. in a 5% CO2 atmosphere and pulsed with 0.5μ Ci ^3 H-thymidine (specific activity […]) for the last 18 hour culture. The cells were harvested on an automated multiple sample harvester and cell-associated radioactivity counted in a Beckman liquid scintillation counter. The results are expressed as the mean values derived from quadruplicate measurements. Cell viability was determined by trypan blue exclusion after 72 hours of incubation. Compounds to be tested were added to the microtiter plates at the appropriate dilutions prior to the addition of cells.

Usually IC50 stands for the concentration needed to halve the response being measured. The low end stands for greater potency, the high end for weaker potency.

As for `CO[C@H]1C[C@@H]2CC[C@@H](C)C(O)(CC(=O)N3CCCC[C@H]3C(=O)O[C@H]([C@H](C)C[C@@H]3CC[C@@H](O)[C@H](OC)C3)CC(=O)[C@H](C)/C=C(\C)[C@@H](O)[C@@H](OC)C(=O)[C@H](C)C[C@H](C)/C=C/C=C/C=C/1C)O2` [14-methylene rapamycin], in the test with Saccharomyces cerevisiae (Saccharomyces cerevisiae on YPD agar, read-out: Yeast IC12 (concentration of drug in the antifungal assay which produces a 12 mm zone of inhibition)), the IC (12 mm zone of inhibition) came out at 0.013 µM. Moreover, in the test with Saccharomyces cerevisiae (Saccharomyces cerevisiae), the “antifungal activity (in words)” value was “has both antifungal and immunomodulatory activity”. In test [1], the “immunosuppressive / immunomodulatory activity (in words)” value was “has both antifungal and immunomodulatory activity”. In test [1] (Mus musculus, 37 degrees C., 3H-thymidine), this compound gave an IC50 of 15 nM.
